Patent US20260216138A1, “IDENTIFICATION OF OTUD7B INHIBITOR 7BI AND ITS APPLICATION IN REDUCING GROWTH OF NSCLC AND LEUKEMIA CELLS” (The University of North Carolina at Chapel Hill, priority 2023, published 2026)
“Also recorded” adds a separate entry of the source.

How the values were obtained:
Akt-pS473 = Akt-pS473 immunoblot in leukemia cells (HL60, K562, THP1); format: cell-based; details: indicated doses, 16 hrs
Experimental: (§1) Cells were harvested and lysed in EBC buffer (50 mM Tris pH 7.5, 120 mM NaCl, 0.5% NP-40) supplemented with protease inhibitor cocktail (EDTA-free, mini-tablet) (Bimake) and phosphatase inhibitor cocktail (Bimake) by rotating in the cold room for 10 min followed by high-speed centrifugation at 4° C. The protein concentrations in supernatants of whole cell lysates were measured by NanoDrop OneC using the Bio-Rad Bradford protein assay reagent. Equal amounts of whole cell lysates were resolved on SDS-PAGE and immunoblotted with indicated antibodies. For immunoprecipitation analysis, 1 mg of total cell lysate was incubated with the indicated beads for 3-4 hr at 4° C. The recovered immuno-complexes were washed thoroughly three times with NETN buffer (20 mM Tris, pH 8.0, 100 mM NaCl, 1 mM EDTA and 0.5% NP-40) before being resuspended in SDS sample buffer and resolved on SDS-PAGE and immunoblotted with indicated antibodies.
In addition to NSCLC, overexpression of OTUD7B was also observed in diffuse large B-cell lymphoma and served as a prognostic marker. This promoted us to examine roles of OTUD7B in leukemia cells. […] Similar to NSCLC cells, depletion of OTUD7B in K562 cells also led to increased K63-linked GβL ubiquitination (FIG. 4D). Consistent with a reduction in Akt-pS473 signals, OTUD7B depletion reduced the growth of THP1 (FIG. 4E), K562 (FIG. 4F) and HL60 (FIG. 4G) cells in vitro.

[1] = tested on: OTUD7B-induced GβL deubiquitination; test: In-cell GβL ubiquitination assay (Ni-NTA pulldown, HEK293 cells); format: cell-based; details: HEK293 cells transfected with DNA constructs, compound for 16 hrs; listed as #19
Experimental: FIGS. 2A-2L show results of validation for OTUD7B small molecule inhibitors in cells. (A-D) IB analyses of WCL from indicated NSCLC cells treated with […] of indicated compounds for 16 hrs. (E, F) IB analyses of WCL from either A549 (E) or HEK293 (F) cells treated with indicated doses of compound #19 for 16 hrs. (G) IB analyses of Ni-NTA pulldowns and WCL from HEK293 cells transfected with indicated DNA constructs. Where indicated, cells were treated with […] of indicated compounds for 16 hrs before cell collection. (H-L) Quantifications of cell viability by MTT assays in A549 cells treated with indicated doses of indicated compounds for 72 hrs. Error bars were calculated as mean+/−SD, n=3. *p<0.05 (one-way ANOVA test).

[2] = tested on: GβL binding with mTORC2 components (Sin1, Rictor, mTOR); test: GβL binding with mTORC2 components (HA-IP, HEK293 cells); format: cell-based; details: indicated doses of 7Bi, 16 hrs
Experimental: as §1

OTUD7A = biological target: T1, OTUD7A (Homo sapiens, UniProt Q8TE49); test: Ubiquitin-AMC assay, OTUD7A; format: biochemical; details: 50 μM 7Bi, 10 μM OTUD7A, 2 uM ubiquitin-AMC
T1 construct: OTUD7A (residues 1-462); GST (N, cleaved yes); made in house; host or cells: E. coli BL21-Codon Plus (DE3)-RIL
T1 sequence (Q8TE49 1-462): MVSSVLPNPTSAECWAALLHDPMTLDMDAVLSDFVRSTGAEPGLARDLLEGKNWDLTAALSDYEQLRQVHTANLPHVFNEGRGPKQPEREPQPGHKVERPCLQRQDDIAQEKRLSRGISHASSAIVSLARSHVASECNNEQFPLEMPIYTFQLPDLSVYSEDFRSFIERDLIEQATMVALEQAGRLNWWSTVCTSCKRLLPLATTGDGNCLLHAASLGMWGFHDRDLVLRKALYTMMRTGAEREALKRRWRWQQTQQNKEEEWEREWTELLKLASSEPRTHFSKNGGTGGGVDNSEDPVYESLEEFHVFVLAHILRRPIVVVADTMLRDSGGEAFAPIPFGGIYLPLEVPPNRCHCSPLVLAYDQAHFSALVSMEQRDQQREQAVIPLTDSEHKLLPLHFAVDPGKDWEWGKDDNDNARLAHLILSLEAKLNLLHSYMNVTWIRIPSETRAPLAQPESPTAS
Experimental: 50 μM 7Bi were incubated with 300 nM OTUD7B (residues 56-446), 10 μM OTUD7A (residues 1-462), 200 nM USP21 (residues 196-565), or 500 nM USP9X (residues 1551-1970) in reaction buffer (20 mM HEPES pH=8.0, 200 mM NaCl, 0.25 mg/mL BSA and 0.005% Tween-20) for 5 min at room temperature. Then, 2 uM ubiquitin-AMC was added to start the reaction. The fluorescence emission data was collected at an excitation wavelength of 355 nm and emission wavelength of 460 nm every 3 min. Reactions were completed three times to generate the error bars.

H520 cells = test: Colony formation / growth of H520 cells; format: cell-based; details: treated once for 10 days
Experimental: (§2) 500 cells from OTUD7B depleted A549 cells were seeded into each well of 6-well plates and cultured in the 37° C. incubator with 5% CO2 for 10-15 days until formation of visible colonies. Triplicates were performed. To test the effect of a given inhibitor on colony formation ability, 800 cells from A549, H520 and H1299 cell lines were seeded into each well of 6-well plates, respectively. Each inhibitor was added at indicated concentration the next day. Colonies were counted after 10 days of treatment. The colony staining method was as described. […] Colony numbers were counted manually. […]
(§3) 2,000 cells from indicated NSLC cell lines were seeded into each well of 96-well plates. Cell viability was measured 3 days post-treatment using MTT assays following manufacturer's instruction. […] Inhibitor was added the next day at indicated concentration and cell viability was measured after 3-day treatment. For cell proliferation assays in THP1, K562 and HL60 cell lines, 1×10^6 cells from each indicated cell line were seeded in 12.5 cm2 cell culture flask and cells were counted by hemocytometer under microscope at indicated time to monitor cell proliferation. […] Inhibitor was added the next day at indicated concentrations and cell number was counted after 3 days treatment. […]

THP1 cells = test: Leukemia cell proliferation, THP1; format: cell-based; details: 72 hrs
Experimental: 2,000 cells from indicated NSLC cell lines were seeded into each well of 96-well plates. Cell viability was measured 3 days post-treatment using MTT assays following manufacturer's instruction. For cell viability assays with inhibitor treatment, 2,000 cells from indicated NSLC and HEK293 cell lines were seeded in 96-well plate. Inhibitor was added the next day at indicated concentration and cell viability was measured after 3-day treatment. For cell proliferation assays in THP1, K562 and HL60 cell lines, 1×10^6 cells from each indicated cell line were seeded in 12.5 cm2 cell culture flask and cells were counted by hemocytometer under microscope at indicated time to monitor cell proliferation. To test inhibitor effects on THP1, K562 and HL60 cell growth, 2×10^5 cells were seeded in 12.5 cm2 cell culture flask. Inhibitor was added the next day at indicated concentrations and cell number was counted after 3 days treatment. Three independent experiments were performed to generate error bars.

NSCLC cells = test: NSCLC cell growth; format: cell-based; details: read-out: IC50 values to suppress NSCLC cell growth
Experimental: as §2, §3

In the case of Cc1cc(NC(=O)c2cnn(C)c2C(=O)Nc2cc(C)nn2C2CCCC2)n(C2CCCC2)n1 [7Bi], the Akt-pS473 signals (Akt-pS473; HL60 cells) is reported as “reduced Akt-pS473 signals”, the Akt-pS473 signals (Akt-pS473; K562 cells) is reported as “reduced Akt-pS473 signals” and the Akt-pS473 signals (Akt-pS473; THP1 cells) is reported as “reduced Akt-pS473 signals”. The “blocking OTUD7B-induced GβL deubiquitination in cells” value [1] was “partially blocked OTUD7B-induced GβL deubiquitination; also recorded: able to block OTUD7B-mediated GβL deubiquitination in cells”, the “GβL binding with mTORC2 components (Sin1, Rictor, mTOR)” value [2] was “attenuated GβL binding with mTORC2 components” and the “inhibition of hydrolysis of ubiquitin-AMC by OTUD7A” value (OTUD7A) was “but not its close family member OTUD7A”. The cell growth (H520 cells) was “reduced growth”, the cell proliferation (THP1 cells) was “reduced proliferation” and the IC50 (NSCLC cells) was ~2500 nM.
